This note sets out measurements from PMC6187366, “Highly Sensitive Label-Free Detection of Small Molecules with an Optofluidic Microbubble Resonator” (Micromachines, 2018).

The test addresses Streptavidin (SA) (Streptomyces avidinii, UniProt P22629). The test can be described thus: label-free optofluidic microbubble resonator, kinetic kon/koff global Langmuir fit. The class given is binding. The conditions noted are these: read-out: ka (M)^-1 (converted). From the text:
label-free optofluidic microbubble resonator, kinetic kon/koff global Langmuir fit on Streptavidin (SA)

SMILES strings stand for the structures.

Sequence of Streptavidin (SA) (P22629 25-183): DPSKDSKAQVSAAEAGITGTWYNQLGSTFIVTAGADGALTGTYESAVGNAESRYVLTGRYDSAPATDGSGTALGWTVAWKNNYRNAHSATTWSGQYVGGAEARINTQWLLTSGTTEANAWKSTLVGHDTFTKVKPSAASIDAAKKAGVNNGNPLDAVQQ

For the compound `C=CCc1ccc(O)c(-c2cc(CC=C)ccc2O)c1` [magnolol], the Kd was 2.13e-11 M.
